pIC50: −log10 of the molar value. Read-outs that look alike come from different tables or passages of the source.
How the values were obtained:
[1] = tested on: SW620 cells; test: Anti-proliferative activity, AlamarBlue assay, SW620 cells; assay type: cell-based, human; details: for pIC50: SW620 human colorectal adenocarcinoma cells, 48-72 hours with compound, AlamarBlue, sigmoidal regression curve, read-out: IC50 of anti-proliferative drugs in SW620 cells
Protocol: (§1) Human colorectal adenocarcinoma cell lines HT29 and SW620, as well as murine colon carcinoma cell line CT26, were purchased from the American Type Culture Collection (ATCC) and grown in either Dulbecco's Modified Eagle Medium (DMEM) or Roswell Park Memorial Institute (RPMI) medium from Corning and Life Technologies, respectively. These media were supplemented with 10% fetal bovine serum (FBS, Atlanta Biologicals), as well as 1 mM sodium pyruvate (Corning) and 10 mM HEPES (Fisher) for CT26 cells. Cells were grown in Corning 75 cm^2 flasks and split approximately 6 days before plating, with a refeed of fresh media the day prior to plating. Anti-proliferative drugs 2, 3 and SN38, were reconstituted in DMSO for storage at −20° C. until use. AlamarBlue, a colorimetric cell metabolism reagent, was purchased from Life Technologies.
To qualify AlamarBlue incubation time and required cell density, cells were plated into flat bottom 96 well plates (Techno Plastic Products, Trasadingen, Switzerland) at plating densities from 4×10^4 to 1.25×10^3 cells per well. The cells were incubated at 37° C. inside a Nu-Aire TS Autoflow incubator with 5% CO2 and humidity for 48-72 hours, AlamarBlue reagent was then added to all wells, equivalent to 10% of the culture volume or 20 μL. The plates were returned to the 37° C. incubator, and the absorbance at 570 and 600 nm were assessed using a Bio-Tek Epoch microplate reader at 1, 2, 4, 7 and in some experiment 24 hours post addition of AlamarBlue. Once the optimum cell density and incubation time was determined for each cell line, testing of the anti-proliferative drugs on the cells was initiated. […] After addition of AlamarBlue, plates were incubated for 4 hours at 37° C. and absorbance assessed using the Epoch microplate reader. Absorbances were used to calculate the % inhibition for each well using the following equation, where O1 is the molar extinction coefficient of oxidized AlamarBlue at 570 nm (80586), O2 is the molar extinction coefficient of oxidized AlamarBlue at 600 nm (117216), A1 is the absorbance of the test wells at 570 nm, A2 is the absorbance of the test wells at 600 nm, P1 is the absorbance of the control wells with AlamarBlue but without test agent at 570, and P2 is the absorbance of the control wells with AlamarBlue but without the test agent at 600. % difference between=(O2×A1)−(O1×A2)×100treated and untreated cells (O2×P1)−(O1×P2)
(§2) The dose response data generated by these values was used to calculate the half maximal inhibitory concentration (IC50) using a regression curve (3 or 4 parameter logistic sigmoidal curve or sigmoidal sigmoid curve) in Sigma Plot, version 12.5. Statistical differences were calculated using SPSS Statistics software, version 17.0, using the independent t-test with an α of 0.05. […]

[2] = tested on: HT29 cells; test: Anti-proliferative activity, AlamarBlue assay, HT29 cells; assay type: cell-based, human; details: for % inhibition compared to SN38 / inhibition at 33.3 µM: HT29 cells; for % inhibition compared to SN38: highest concentration tested, 100 μM; for pIC50: HT29 human colorectal adenocarcinoma cells, 48-72 hours with compound, AlamarBlue, sigmoidal logistic regression curve, read-out: IC50 of anti-proliferative drugs in HT29 cells; for inhibition at 33.3 µM: Homo sapiens
Protocol: as §1
To qualify AlamarBlue incubation time and required cell density, cells were plated into flat bottom 96 well plates (Techno Plastic Products, Trasadingen, Switzerland) at plating densities from 4×10^4 to 1.25×10^3 cells per well. The cells were incubated at 37° C. inside a Nu-Aire TS Autoflow incubator with 5% CO2 and humidity for 48-72 hours, AlamarBlue reagent was then added to all wells, equivalent to 10% of the culture volume or 20 μL. The plates were returned to the 37° C. incubator, and the absorbance at 570 and 600 nm were assessed using a Bio-Tek Epoch microplate reader at 1, 2, 4, 7 and in some experiment 24 hours post addition of AlamarBlue. Once the optimum cell density and incubation time was determined for each cell line, testing of the anti-proliferative drugs on the cells was initiated. For each cell line, cells were plated at 5×10^3 cells per well and incubated at 37° C. for 24 hours, at which time the anti-proliferative compounds were added. […] Aliquots of anti-proliferatives were thawed, diluted in media appropriate for each cell line, and serially diluted 1:3. A serial pipetter, was used to deliver 100 μl of each concentration of anti-proliferative compound to the appropriate wells in triplicate, the plate was tapped gently to mix, and then incubated at 37° C. for 48-72 hours. Control wells containing media alone and media with an equal percentage of DMSO in comparison to the initial anti-proliferative dilution were also established in each plate. After a minimum of 48 hours of incubation, 20 μl of AlamarBlue was added to each experimental well as well as the negative control wells. AlamarBlue positive control wells, containing 200 μl of 100% reduced AlamarBlue, were also established to provide a colorimetric endpoint reference for the assay. After addition of AlamarBlue, plates were incubated for 4 hours at 37° C. and absorbance assessed using the Epoch microplate reader. Absorbances were used to calculate the % inhibition for each well using the following equation, where O1 is the molar extinction coefficient of oxidized AlamarBlue at 570 nm (80586), O2 is the molar extinction coefficient of oxidized AlamarBlue at 600 nm (117216), A1 is the absorbance of the test wells at 570 nm, A2 is the absorbance of the test wells at 600 nm, P1 is the absorbance of the control wells with AlamarBlue but without test agent at 570, and P2 is the absorbance of the control wells with AlamarBlue but without the test agent at 600. % difference between=(O2×A1)−(O1×A2)×100treated and untreated cells (O2×P1)−(O1×P2)
as §2

[3] = tested on: CT26 cells; test: Anti-proliferative activity, AlamarBlue assay, CT26 cells; assay type: cell-based; details: CT26 murine colon carcinoma cells, 48-72 hours with compound, 4 parameter regression curve, read-out: IC50 of anti-proliferative drugs in CT26 cells
Protocol: as §1
To qualify AlamarBlue incubation time and required cell density, cells were plated into flat bottom 96 well plates (Techno Plastic Products, Trasadingen, Switzerland) at plating densities from 4×10^4 to 1.25×10^3 cells per well. […] The plates were returned to the 37° C. incubator, and the absorbance at 570 and 600 nm were assessed using a Bio-Tek Epoch microplate reader at 1, 2, 4, 7 and in some experiment 24 hours post addition of AlamarBlue. Once the optimum cell density and incubation time was determined for each cell line, testing of the anti-proliferative drugs on the cells was initiated. […] After addition of AlamarBlue, plates were incubated for 4 hours at 37° C. and absorbance assessed using the Epoch microplate reader. […]
as §2

Row | Structure (SMILES) | pIC50 ([1]; SW-620) | % inhibition compared to SN38 [2] | pIC50 ([2]; HT-29) | inhibition at 33.3 µM ([2]; HT-29) | pIC50 ([3]; Mus musculus) | % inhibition ([1]; SW620 cells, throughout all concentrations tested (100 μM to 0.4 μM)) | pIC50 [1] | pIC50 [2] | pIC50 [3]
1 | CCCCC(=O)O[C@]1(CC)C(=O)OCc2c1cc1n(c2=O)Cc2c-1nc1ccc(O)cc1c2CC [Compound 2] | 5.72 | not significantly different from SN38 | 5.25 | > 54% | 4.74 |  |  |  | 
2 | CCc1c2c(nc3ccc(O)cc13)-c1cc3c(c(=O)n1C2)COC(=O)[C@]3(O)CC [SN38, reference compound] |  |  |  |  |  | over 55% | 6.15 | 6.70 | 6.22
3 | CCCCCCCCCCCCCC(=O)O[C@]1(CC)C(=O)OCc2c1cc1n(c2=O)Cc2c-1nc1ccc(O)cc1c2CC [Compound 3] | 4.99 | not significantly different from SN38 | 4.77 | > 54% | 4.85 |  |  |  | 

— US10407437B2, “Camptothecin derivatives and uses thereof” (Los Gatos Pharmaceuticals, Inc., priority 2016, dated 2019)
